Results as given in US12655116B2, “Substituted isophthalic acid diamides” (Bayer Aktiengesellschaft, priority 2020, dated 2026).

Experiments:
VIOTR [1] = test: Pre-emergence herbicidal action against VIOTR; format: in vivo, Viola tricolor
In short: (§1)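 Sandy loam pots, seeds covered with soil, then surface-treated with WP or EC formulations at 600–800 l/ha water plus 0.2% wetting agent. Greenhouse, 3 weeks. Percent damage vs untreated controls.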

SETVI [2] = test: Pre-emergence herbicidal action against SETVI; format: in vivo, Setaria viridis
In short: as §1

VIOTR [3] = test: Post-emergence herbicidal action against VIOTR; format: in vivo, Viola tricolor
In short: (§2)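 Herbicidal action is a visual percentage rating (0% = as untreated control, 100% = plants dead) made roughly 3 weeks after treatment. Plants were grown in sandy loam in the greenhouse and treated at the one-leaf stage, 2 to 3 weeks post-sowing. Treatment was a foliar spray of wettable-powder or emulsion-concentrate formulations at 600 to 800 l/ha water plus 0.2% wetting agent.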

AMARE [4] = test: Post-emergence herbicidal action against AMARE; format: in vivo, Amaranthus retroflexus; conditions: 20 g/ha, visual assessment about 3 weeks after treatment, 100% = plants have died, 0% = like control plants
In short: as §2

PHBPU [5] = test: Pre-emergence herbicidal action against PHBPU; format: in vivo, Pharbitis purpurea; conditions: dosage 80 g/ha
In short: as §1

DIGSA [6] = test: Pre-emergence herbicidal action against DIGSA; format: in vivo, Digitaria sanguinalis
In short: as §1

ALOMY = test: Pre-emergence herbicidal action against ALOMY; format: in vivo, Alopecurus myosuroides; conditions: 80 g/ha, pre-emergence, scored visually after 3 weeks vs untreated controls (100% = plants have died, 0% = like control plants)
In short: as §1

ECHCG [7] = test: Pre-emergence herbicidal action against ECHCG; format: in vivo, Echinochloa crus-galli; conditions: 80 g/ha
In short: as §1

ECHCG [8] = test: Post-emergence herbicidal action against ECHCG; format: in vivo, Echinochloa crus-galli
In short: as §2

MATIN [9] = test: Pre-emergence herbicidal action against MATIN; format: in vivo, Matricaria inodora
In short: as §1

AMARE [10] = test: Pre-emergence herbicidal action against AMARE; format: in vivo, Amaranthus retroflexus
In short: as §1

ABUTH [11] = test: Post-emergence herbicidal action against ABUTH; format: in vivo, Abutilon theophrasti; conditions: dosage 20 g/ha, visual assessment about 3 weeks after treatment vs untreated controls
In short: as §2

POLCO = test: Pre-emergence herbicidal action against POLCO; format: in vivo, Polygonum convolvulus; conditions: dosage 80 g/ha
In short: as §1

ABUTH [12] = test: Pre-emergence herbicidal action against ABUTH; format: in vivo, Abutilon theophrasti
In short: as §1

VERPE = test: Pre-emergence herbicidal action against VERPE; format: in vivo, Veronica persica
In short: as §1

PHBPU [13] = test: Post-emergence herbicidal action against PHBPU; format: in vivo, Pharbitis purpurea; conditions: dosage 20 g/ha
In short: as §2

MATIN [14] = test: Post-emergence herbicidal action against MATIN; format: in vivo, Matricaria inodora; conditions: dosage 20 g/ha
In short: as §2

SETVI [15] = test: Post-emergence herbicidal action against SETVI; format: in vivo, Setaria viridis; conditions: dosage 20 g/ha
In short: as §2

DIGSA [16] = test: Post-emergence herbicidal action against DIGSA; format: in vivo, Digitaria sanguinalis; conditions: 20 g/ha
In short: as §2

[17] = 20 g/ha, scored visually after 3 weeks vs untreated controls, 100% = plants have died, 0% = like control plants
[18] = 80 g/ha, scored visually after 3 weeks vs untreated controls (100% = plants have died, 0% = like control plants)
[19] = dosage 20 g/ha, scored visually after 3 weeks vs untreated controls, 100% = plants have died, 0% = like control plants

Cn1nnnc1NC(=O)c1ccc(C(F)(F)F)c(C(=O)NC2CCC2)c1Cl [Example 1-146]
Pre-emergence action against VIOTR in % (VIOTR [1]; dosage 80 g/ha): 100%
Pre-emergence action against SETVI in % (SETVI [2]; dosage 80 g/ha): 80%
Post-emergence action against VIOTR in % (VIOTR [3]; 5 g/ha): 80%
Post-emergence action against VIOTR in % (VIOTR [3]; 20 g/ha): 100%
Post-emergence action at 20 g/ha against AMARE in % (AMARE [4]): 100%
Pre-emergence action against PHBPU in % (PHBPU [5]): 80%
Pre-emergence action against DIGSA in % (DIGSA [6]; dosage 20 g/ha): 100%
Pre-emergence action against DIGSA in % (DIGSA [6]; dosage 80 g/ha): 100%
Pre-emergence action against ALOMY (herbicidal activity) (ALOMY): 90%
Pre-emergence action against ECHCG in % (ECHCG [7]): 100%
Post-emergence action against ECHCG in % (ECHCG [8]; dosage 20 g/ha): 80%
Pre-emergence action against MATIN in % (MATIN [9]; dosage 20 g/ha): 100%
Pre-emergence action against MATIN in % (MATIN [9]; dosage 80 g/ha): 100%
Pre-emergence action against AMARE in % (AMARE [10]; [17]): 100%
Pre-emergence action against AMARE in % (AMARE [10]; [18]): 100%
Post-emergence action against ABUTH in % (ABUTH [11]): 80%
Pre-emergence action against POLCO in % (POLCO): 80%
Pre-emergence action against ABUTH (herbicidal activity) (ABUTH [12]; [18]): 100%
Pre-emergence action against ABUTH (herbicidal activity in percent) (ABUTH [12]; [19]): 100%

Cn1nnnc1NC(=O)c1ccc(C(F)F)c(C(=O)Nc2ccccc2)c1Cl [Example 1-161]
pest or weed control at 20 g/ha (VERPE; Veronica persica, 504 h, dosage 20 g/ha): 80%
pest or weed control at 80 g/ha (VERPE; Veronica persica, 504 h, dosage 80 g/ha): 90%
pest or weed control at 20 g/ha (AMARE [4]; Amaranthus retroflexus, 504 h): 90%
pest or weed control at 80 g/ha (PHBPU [5]; Ipomoea purpurea, 504 h): 80%
pest or weed control at 20 g/ha (MATIN [9]; Tripleurospermum inodorum, 504 h, dosage 20 g/ha): 90%
pest or weed control at 80 g/ha (MATIN [9]; Tripleurospermum inodorum, 504 h, dosage 80 g/ha): 100%
pest or weed control at 20 g/ha (AMARE [10]; Amaranthus retroflexus, 504 h, 20 g/ha, scored visually after 3 weeks vs untreated controls, 100% = plants have died, 0% = like control plants): 100%
pest or weed control at 80 g/ha (AMARE [10]; Amaranthus retroflexus, 504 h, 80 g/ha, scored visually after 3 weeks vs untreated controls, 100% = plants have died, 0% = like control plants): 100%
pest or weed control at 80 g/ha (POLCO; Fallopia convolvulus, 504 h): 80%
pest or weed control at 80 g/ha (ABUTH [12]; Abutilon theophrasti, 504 h, 80 g/ha, scored visually after 3 weeks vs untreated controls (100% = plants have died, 0% = like control plants)): 90%
pest or weed control at 20 g/ha (ABUTH [12]; Abutilon theophrasti, 504 h, dosage 20 g/ha, scored visually after 3 weeks vs untreated controls, 100% = plants have died, 0% = like control plants, read-out: Pre-emergence action against ABUTH (herbicidal activity in percent)): 80%

CCn1nnnc1NC(=O)c1ccc(C(F)(F)F)c(C(=O)NCCOC)c1Cl [Example 2-138]
Pre-emergence action against VIOTR in % (VIOTR [1]; dosage 20 g/ha): 90%
Pre-emergence action against VIOTR in % (VIOTR [1]; dosage 80 g/ha): 100%
Pre-emergence action against VERPE in % (VERPE; dosage 80 g/ha): 100%
Pre-emergence action against SETVI in % (SETVI [2]; dosage 80 g/ha): 80%
Post-emergence action at 20 g/ha against AMARE in % (AMARE [4]): 90%
Pre-emergence action against PHBPU in % (PHBPU [5]): 80%
Pre-emergence action against DIGSA in % (DIGSA [6]; dosage 20 g/ha): 100%
Pre-emergence action against DIGSA in % (DIGSA [6]; dosage 80 g/ha): 100%
Post-emergence action against PHBPU in % (PHBPU [13]): 80%
Pre-emergence action against ALOMY (herbicidal activity) (ALOMY): 90%
Pre-emergence action against ECHCG in % (ECHCG [7]): 90%
Post-emergence action against ECHCG in % (ECHCG [8]; dosage 5 g/ha): 80%
Post-emergence action against ECHCG in % (ECHCG [8]; dosage 20 g/ha): 90%
Pre-emergence action against MATIN in % (MATIN [9]; dosage 20 g/ha): 90%
Pre-emergence action against MATIN in % (MATIN [9]; dosage 80 g/ha): 100%
Pre-emergence action against AMARE in % (AMARE [10]; [17]): 100%
Pre-emergence action against AMARE in % (AMARE [10]; [18]): 100%
Pre-emergence action against POLCO in % (POLCO): 90%
Pre-emergence action against ABUTH (herbicidal activity) (ABUTH [12]; [18]): 100%
Pre-emergence action against ABUTH (herbicidal activity in percent) (ABUTH [12]; [19]): 80%

CCn1nnnc1NC(=O)c1ccc(C(F)(F)F)c(C(=O)NCC2CCCO2)c1Cl (centres unmarked) [Example 2-141]
Pre-emergence action against VIOTR in % (VIOTR [1]; dosage 80 g/ha): 90%
Pre-emergence action against SETVI in % (SETVI [2]; dosage 20 g/ha): 90%
Pre-emergence action against SETVI in % (SETVI [2]; dosage 80 g/ha): 100%
Post-emergence action at 20 g/ha against AMARE in % (AMARE [4]): 80%
Pre-emergence action against PHBPU in % (PHBPU [5]): 80%
Pre-emergence action against DIGSA in % (DIGSA [6]; dosage 80 g/ha): 90%
Post-emergence action against PHBPU in % (PHBPU [13]): 80%
Pre-emergence action against ALOMY (herbicidal activity) (ALOMY): 90%
Pre-emergence action against ECHCG in % (ECHCG [7]): 80%
Post-emergence action against ECHCG in % (ECHCG [8]; dosage 20 g/ha): 80%
Pre-emergence action against MATIN in % (MATIN [9]; dosage 20 g/ha): 80%
Pre-emergence action against MATIN in % (MATIN [9]; dosage 80 g/ha): 90%
Pre-emergence action against AMARE in % (AMARE [10]; [17]): 100%
Pre-emergence action against AMARE in % (AMARE [10]; [18]): 100%
Pre-emergence action against POLCO in % (POLCO): 80%

CCn1nnnc1NC(=O)c1ccc(C(F)F)c(C(=O)NC2CCC2)c1Cl [Example 2-164]
Pre-emergence action against VIOTR in % (VIOTR [1]; dosage 80 g/ha): 100%
Pre-emergence action against VERPE in % (VERPE; dosage 80 g/ha): 100%
Pre-emergence action against SETVI in % (SETVI [2]; dosage 80 g/ha): 80%
Post-emergence action against MATIN in % (MATIN [14]): 80%
Post-emergence action at 20 g/ha against AMARE in % (AMARE [4]): 90%
Pre-emergence action against PHBPU in % (PHBPU [5]): 100%
Pre-emergence action against DIGSA in % (DIGSA [6]; dosage 80 g/ha): 100%
Pre-emergence action against ECHCG in % (ECHCG [7]): 80%
Post-emergence action against ECHCG in % (ECHCG [8]; dosage 20 g/ha): 80%
Pre-emergence action against MATIN in % (MATIN [9]; dosage 20 g/ha): 100%
Pre-emergence action against MATIN in % (MATIN [9]; dosage 80 g/ha): 100%
Pre-emergence action against AMARE in % (AMARE [10]; [17]): 100%
Pre-emergence action against AMARE in % (AMARE [10]; [18]): 100%
Pre-emergence action against POLCO in % (POLCO): 90%
Pre-emergence action against ABUTH (herbicidal activity) (ABUTH [12]; [18]): 100%
Pre-emergence action against ABUTH (herbicidal activity in percent) (ABUTH [12]; [19]): 90%

CCCNC(=O)c1c(C(F)F)ccc(C(=O)Nc2nnc(C)o2)c1Cl [Example 6-259]
Pre-emergence action against VIOTR in % (VIOTR [1]; dosage 80 g/ha): 80%
Pre-emergence action against SETVI in % (SETVI [2]; dosage 80 g/ha): 100%
Post-emergence action at 20 g/ha against AMARE in % (AMARE [4]): 100%
Post-emergence action against SETVI in % (SETVI [15]): 90%
Pre-emergence action against PHBPU in % (PHBPU [5]): 80%
Pre-emergence action against DIGSA in % (DIGSA [6]; dosage 20 g/ha): 100%
Pre-emergence action against DIGSA in % (DIGSA [6]; dosage 80 g/ha): 100%
Pre-emergence action against ALOMY (herbicidal activity) (ALOMY): 80%
Pre-emergence action against ECHCG in % (ECHCG [7]): 100%
Post-emergence action against ECHCG in % (ECHCG [8]; dosage 5 g/ha): 80%
Post-emergence action against ECHCG in % (ECHCG [8]; dosage 20 g/ha): 90%
Post-emergence action against DIGSA (DIGSA [16]): 90%
Pre-emergence action against MATIN in % (MATIN [9]; dosage 20 g/ha): 90%
Pre-emergence action against MATIN in % (MATIN [9]; dosage 80 g/ha): 100%
Pre-emergence action against AMARE in % (AMARE [10]; [17]): 100%
Pre-emergence action against AMARE in % (AMARE [10]; [18]): 100%
Post-emergence action against ABUTH in % (ABUTH [11]): 80%
Pre-emergence action against POLCO in % (POLCO): 90%
Pre-emergence action against ABUTH (herbicidal activity) (ABUTH [12]; [18]): 100%
Pre-emergence action against ABUTH (herbicidal activity in percent) (ABUTH [12]; [19]): 90%
